The subject of data set [1] is U87 glioblastoma cells. Nature of the data set: Cell viability by MTT assay. The class given is cell-based. The conditions noted are these: 24 h; for IC50: read-out: IC50, growth inhibition of U87 glioblastoma cells. On the procedure: U87 glioblastoma cells were obtained from American Type Culture Collection (ATCC, USA) and maintained in Dulbecco's Modified Eagle's Medium (DMEM) supplemented with 10% fatal bovine serum (FBS) in 5% CO2 at 37°C. Cells were treated with various concentrations of PLAB dissolved in DMSO with a final DMSO concentration of 1% or with DMSO alone for 24 h. DMSO-treated cells were used as control.
Cell viability was assessed by MTT assay and live/dead assay as described by us previously. Briefly U87 cells were treated with various concentrations of PLAB (1 to 100 μM) or Doxorubicin (0.25 to 20 μM) for 24 h. Following treatment, the MTT reagent was added (500 μg/mL) and cells were further incubated at 37°C for 4 h. Subsequently 150 μL DMSO was added to dissolve farmazan crystals and absorbance was measured at 570 nm in a microplate reader (Thermo Scientific). Results were expressed as the percentage of MTT reduction, assuming that the absorbance of control cells was 100%.
On the technique in general: Tetrazolium assays rely on reduction of a dye to a coloured formazan, in cell work by metabolically active cells.

In data set [2] the test system is U87 glioblastoma cells. Briefly: Live/dead assay, calcein AM and PI, flow cytometry. The following applies: 24 h, read-out: viability of U87 glioblastoma cells (live/dead assay). The data set is classed as cell-based. How it is done:
Furthermore, live and dead cells were quantified using the fluorescent probes calcein AM and PI. Calcein AM is cell membrane permeable and stains only viable cells, whereas PI is cell membrane impermeable and stains only dead cells. After treatment, cells were collected, washed with phosphate buffered saline (PBS) and incubated with PBS solution containing 2 μM calcein AM and 4 μM PI in the dark for 20 min at room temperature. After washing, cells were resuspended in PBS and analyzed for the fluorescence of calcein and PI by flow cytometry (Beckman Coulter, Epics XL).

Data set [3] has as its system U87 glioblastoma cells. Nature of the data set: Nuclear morphology / DNA fragmentation by Hoechst 33258 staining. The conditions noted are these: 5 and 10 μM, 24 h, Hoechst 33258, dose-dependent. The data set is classed as cell-based. How it is done:
After treatment with 5 and 10 μM PLAB for 24 h, U87 cells were collected by centrifugation at 1500 rpm for 5 min, washed twice with PBS and fixed with 4% paraformaldehyde at room temperature for 30 min. After centrifugation, cells were washed with PBS, stained with Hoechst 33258 (50 μg/mL) and incubated at 37°C for 30 min. At the end of incubation, cells were washed and resuspended in PBS for the observation of nuclear morphology under fluorescence microscope (Olympus 1 × 71). At the end, 100 nuclei from control and PLAB-treated groups were counted microscopically for the percentage of cleaved nuclei.

The subject of data set [4] is U87 glioblastoma cells. Briefly: Flow cytometry analysis of apoptosis (Annexin V/PI). The following applies: 24 h, in % (unit assumed). The class given is cell-based. How it is done:
U87 cells were treated with 5 and 10 μM PLAB in the presence or absence of z-VAD-fmk and PFTα for 24 h. After treatment, both adherent and floating cells were collected, washed with PBS, and resuspended in 200 μL of binding buffer containing 5 μL Annexin V and put in the dark for 10 min according to the kit instructions (Beyotime, Shanghai, China). After incubation, cells were labeled with 10 μL PI and samples were immediately analyzed by flow cytometry (Beckman Coulter, Epics XL).
For orientation: A flow cytometer gives signals particle by particle.

In data set [5] the test system is U87 glioblastoma cells. Briefly: Flow cytometry analysis of cell cycle (PI). The conditions noted are these: 24 h; for cells in G2/M phase: Mean ± SEM, n = 3, control 17.63 ± 2.06. The class given is cell-based. On the procedure:
U87 cells were treated with 5 and 10 μM PLAB for 24 h. Following treatment, cells were harvested, washed with PBS, and fixed with 70% ethanol at 4°C for overnight. After washing twice with PBS, cells were stained with a solution containing 50 μg/mL PI and 100 μg/mL RNase A for 30 min in the dark, at room temperature. The DNA contents were analyzed by flow cytometry (Beckman Coulter, Epics XL).

For data set [6], the system named is polymeric tubulin, cyclin B1, CDK1/Cdc2 in U87 glioblastoma cells. Briefly: Western blot of G2/M phase cell cycle regulators. The data set is classed as cell-based. The conditions noted are these: 10 μM PLAB, 3 μM colchicine, 24 h. On the procedure:
(§1) After drug treatment, adherent and floating cells were collected and proteins were isolated as described previously. Nuclear and cytosolic proteins were extracted using cytosolic and nuclear extraction kit (Keygen, China) according to the manufacturer's instructions. 40 μg proteins were electrophoresed on 10% SDS-PAGE and transferred to PVDF membrane. After blocking with 5% (w/v) nonfat milk and washing with Tris-buffered saline-Tween solution (TBST), membranes were incubated overnight at 4°C with p53 (1 : 1000), BCL-2 (1 : 1000), Bax (1 : 300), Cytochrome c (1 : 200), Caspase-3 (1 : 500), Tubulin (1 : 500), Cyclin B1 (1 : 300), Cdc2 (1 : 300), β-actin (1 : 400), and AIF (1 : 1000) antibodies, respectively. After washing, the blots were incubated with horseradish peroxidase-conjugated goat anti-rabbit IgG or goat anti-mouse IgG or rabbit anti-goat IgG secondary antibodies (1 : 1000, Santa Cruz) for 1 h at room temperature. After washing with TBST, signals were detected using ECL plus chemiluminescence kit on X-ray film (Millipore Corporation, Billerica, USA).
Briefly the cell pellet was resuspended in 0.4 mL monomeric extraction buffer (20 mM Tris-HCl, pH 6.8, 0.14 M NaCl, 1 mM MgCl2, 1 mM EGTA, 0.5% Nonidet P-40 (NP-40), 0.5 mM PMSF, and 4 μg/mL paclitaxel), centrifuge at 12,000 ×g for 10 min and supernatant was removed. The pellets containing polymeric tubulin were resuspended in WIP cell lysis reagent (BIOSS, Beijing Biosynthesis Biotechnology Co., Ltd.) for 30 min and the supernatants (polymeric tubulins) were collected by centrifugation at 12,000 ×g for 10 min. The polymeric tubulins were subjected to Western blot analysis.
In general terms: A western blot detects proteins with antibodies after separation by electrophoresis.

For data set [7], the system named is p53, Bcl-2, Bax, Caspase-3, PARP, cytochrome c, AIF in U87 glioblastoma cells. Briefly: Western blot of apoptosis regulators. The data set is classed as cell-based. The conditions noted are these: 24 h. How it is done:
as §1

The next data set has as its system Kunming mice. Briefly: In vivo organ toxicity (liver, kidneys, body weight, serum biomarkers). Also noted: species or system mouse. The conditions noted are these: 25 mg/kg intraperitoneally daily for 14 days. On the procedure: In vivo studies were conducted on 12-14 week old Kunming mice weighing 43-45 g. The mice were maintained in a specific pathogen-free grade animal facility on a 12 h light/dark cycles at 25 ± 2°C. Mouse procedures were approved by the Experimental Animal Committee of Jilin University. Mice were divided into two groups. Group A (n = 5) administered with 50 μL DMSO intraperitoneally; Group B (n = 5) administered with PLAB (25 mg/kg body weight) in 50 μL DMSO intraperitoneally. The experiment was conducted over a period of two weeks. DMSO or drug was administered daily for 14 days, once a day. At the first and last day of the experiment, the body weight of each mouse was measured. At the end of experiment, mice were anesthetized using Pentobarbital sodium (50 mg/kg ip), blood was collected via cardiac puncture, allowed to clot for 10 min, centrifuge at 1000 ×g for 10 min at room temperature. Serum was separated and stored at -20°C until analysis. The liver and kidneys were excised and processed for hematoxylin and eosin staining followed standard procedures. The toxicological effect of PLAB on liver function was assessed by measuring the serum levels of AST, ALT and TBIL. Nephrotoxicity was determined by measuring the serum levels of BUN and Cr. These biochemical parameters were determined by an automated biochemical analyzer ([…] 7170, Japan).

The test system of the next data set is tumor in nude mice. The following applies: 15 mg/kg and 25 mg/kg; ref Wong et al. [14]; cited from earlier work.

By IC50 is commonly meant the concentration that gives 50% inhibition. With `COc1cccc2c1C(=O)c1c(O)c3c(c(O)c1C2=O)C[C@@](O)(C(=O)CO)C[C@@H]3O[C@H]1C[C@H](N)[C@H](O)[C@H](C)O1` [Doxorubicin, reference compound], in the data set with U87 glioblastoma cells [1], the IC50 came out at 1.8 µM.

What is called inhibition is the change of the read-out against control, counted positive when it falls. As to `COC(=O)C1=CC[C@@]23CC[C@@H]([C@@](C)(/C=C/C=C(\C)C(=O)O)OC2=O)[C@@]3(OC(C)=O)CC1` [PLAB, Pseudolaric acid B], in the data set with U87 glioblastoma cells [1] (100 μM, read-out: inhibition rate), the inhibition at 100 µM is more than 85%. The IC50 in the data set on U87 glioblastoma cells [1] is approximately 10 µM. For the same compound, in the data set with U87 glioblastoma cells [2], the viability at 5 µM is 74.7 ± 1.83% and the viability at 10 µM is 56.9 ± 3.47%. In addition, the nuclear morphological changes result with U87 glioblastoma cells [3] is “induced obvious nuclear morphological changes including nuclear shrinkage and DNA fragmentation”. Also, in the data set with U87 glioblastoma cells [4] (5 μM, Mean ± SEM, n = 3, control 2.52 ± 0.49), the apoptosis rate was determined as 24.43 ± 1.50. Further, in the data set with U87 glioblastoma cells [4] (10 μM PLAB with general caspase inhibitor z-VAD-fmk (20 μM)), the apoptosis rate amounted to 16.92 ± 1.30. Further, the apoptosis rate in the data set with U87 glioblastoma cells [4] (10 μM PLAB with p53 inhibitor PFTα (20 μM)) is reported as 33.42 ± 2.85. In the data set with U87 glioblastoma cells [4] (10 μM, Mean ± SEM, n = 3, control 2.52 ± 0.49), the apoptosis rate came to 50.12 ± 3.42. In addition, in the data set on U87 glioblastoma cells [5] (5 μM), the “cells in G2/M phase” value is on record as 42.25 ± 2.95. The “cells in G2/M phase” value in the data set on U87 glioblastoma cells [5] (10 μM) came out at 67.32 ± 1.83. In the data set on U87 glioblastoma cells [5] (PLAB with z-VAD-fmk (20 μM)), the “effect of caspase inhibitor on PLAB-induced mitotic arrest” value is reported as “did not prevent mitotic arrest”. In data set [6], the “expression of Cdk1 (Cdc2)” value is on record as “no change in the expression of Cdk1 (Cdc2)”, the “expression of cyclin B1” value is on record as “increased the expression of cyclin B1” and the “expression of polymeric tubulin (tubulin polymerization)” value is listed as “downregulated polymeric tubulin”. For the same compound, in [7], the PARP cleavage entry is recorded as “cleavage of PARP into 85 kDa protein”; the caspase-3 cleavage entry was “cleaved the caspase-3 into 17 kDa and 12 kDa proteins”; the “expression of Bax” value is “increased expression of Bax”; the “expression of Bcl-2” value is given as “remarkably decreased”. In [7] (cytosolic proteins), the “expression of cytochrome c in cytosol” value was “increased the expression of cytochrome c in cytosol”. Further, in [7] (dose-dependent), the “expression of p53” value is “markedly increased the expression of p53”. Further, in [7] (nuclear proteins), the AIF nuclear translocation entry was “increased the expression of AIF in nucleus dose-dependently”. Further, the “histopathological changes in liver and kidneys” value in the data set with Kunming mice (hematoxylin and eosin staining) is recorded as “No obvious morphological changes”. Besides, the “TBIL, serum” value in the data set with Kunming mice (n = 5, Mean ± SEM, control 1.0 ± 0.12, n.s.) is 1.2 ± 0.26 n.s. μmol/L. Also, the “BUN, serum” value with Kunming mice (n = 5, Mean ± SEM, control 10.94 ± 3.01, n.s.) is on record as 9.45 ± 2.53 n.s. mmol/L. Also, the “Cr, serum” value with Kunming mice (n = 5, Mean ± SEM, control 27.4 ± 2.17, n.s.) was determined as 36.5 ± 1.99 n.s. μmol/L. The “ALT, serum” value with Kunming mice (n = 5, Mean ± SEM, control 47.30 ± 3.70, n.s.) is 55.45 ± 4.35 n.s. U/L. Further, the “AST, serum” value with Kunming mice (n = 5, Mean ± SEM, control 79 ± 5.50, n.s.) came out at 87.66 ± 4.17 n.s. U/L. In the data set with Kunming mice (versus control group), the “change in body weight of mice” value was “No obvious change in body weight”. In the data set with tumor in nude mice, the “growth of tumor in nude mice” value was “significantly inhibited the growth of tumor” and the “toxicity / body weight loss in nude mice” value is on record as “without any sign of toxicity or body weight loss”.

The values above are taken from paper PMC3388351, “Pseudolaric Acid B Induces Caspase-Dependent and Caspase-Independent Apoptosis in U87 Glioblastoma Cells” (Evidence-based Complementary and Alternative Medicine : eCAM, 2012).
